Results reported in patent US7960556B2, “Thiadiazole derivatives for the treatment of neuro-degenerative diseases” (NV reMYND, priority 2006, dated 2011).

Test system: α-synuclein cytotoxicity in M17-SYNwt cells
Assay: α-synuclein cytotoxicity assay: LDH leakage from paraquat-treated M17-SYNwt neuroblastoma cells;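 note: paraquat at 32 mM co-added with compound, 40 h exposure, LDH activity released into the culture medium measured, references are DMSO-only cells and paraquat plus DMSO cells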
Settings: Homo sapiens, Neuroblastoma cell; for Emax: read-out: % Inhib.
From the text: An α-synuclein expression plasmid was constructed by sub-cloning the NcoI/XhoI fragment from 212T-SYN(WT) (Griffioen et al., Biochem Biophys Acta (2006) 1762(3):312-318) containing the cDNA of human wild type α-synuclein correspondingly into a standard mammalian expression vector pcDNA3.1 (Invitrogen) resulting into the plasmid pcDNA3.1-SYNwt. Plasmids pcDNA3.1 and pcDNA3.1-SYNwt were transfected to human neuroblastoma cells (ATCC No. CRL-2267) and independent clonal lines with the plasmids stably integrated into the genome were selected. […] Over-expression of α-synuclein in M17-SYNwt cell lines was confirmed by Western analysis.
Due to the high levels of α-synuclein M17-SYNwt cells are exquisitely sensitivity to paraquat, a well-known risk factor of synuclein-dependent neuronal degeneration. In degenerated or dead cells lactate dehydrogenase (LDH) is leaked out of the cells into the extracellular environment due to a loss of plasma-membrane integrity. This principle was used to determine cytotoxicity by quantifying the level of leaked LDH into the growth medium.
The detailed method for determining α-synuclein cytotoxicity was as follows: From appropriate precultures of M17 and M17-SYN cells were seeded at 50,000 cells/cm^2 in Optimem Reduced Serum without phenol red (available from InVitrogen, Cat. 31985-047) supplemented with 5% fetal calf serum, 1 mM sodium pyruvate, 1× non-essential amino acids, 500 μg/ml G418 0,5× antibiotic/antimycotic. After 3 hours of incubation at 37° C./5% CO2 paraquat was added to the cells (final concentration of 32 mM), together with the test compound and the cells were further incubated for 40 hours. Subsequently, LDH activity was determined using Promega Cytotox 96 Non-Radioactive cytotoxicity assay, (Cat. G1780) according the instructions of the supplier.
In these experiments, the control group consisted of M17-SYNwt cells treated with DMSO, the untreated paraquat group consisted of M17-SYNwt cells treated with paraquat and DMSO, and the treated paraquat group consisted of M17-SYNwt cells treated with paraquat and the test compound dissolved in DMSO.

Row | SMILES | EC50 | Emax
1 | Fc1ccc(Cc2nsc(N3CCN(C/C=C/c4ccccc4)CC3)n2)cc1 [compound 93, 1-[3-phenylprop-2-enyl]-4-[3-(4-fluorobenzyl)-1,2,4-thiadiazol-5-yl]piperazine] | 1990 nM | 91%
2 | COc1ccc(S(=O)(=O)NCCCNc2nc(Cc3cccc(OC)c3)ns2)cc1 [compound 211, N-[4-methoxyphenylsulfonyl]-N′-[3-(3-methoxybenzyl)-1,2,4-thiadiazol-5-yl]-propane-1,3-diamine] | 367 nM | 100%
3 | CCc1ccc(NC(=O)N2CCN(c3nc(Cc4ccc(F)cc4)ns3)CC2C)cc1 (stereo not shown) [compound 11, N-(4-ethylphenyl)-4-[3-(4-fluorobenzyl)-1,2,4-thiadiazol-5-yl]-2-methylpiperazine-1-carboxamide] | 690 nM | 73%
4 | CCCCCCCCS(=O)(=O)N1CCN(c2nc(Cc3ccc(C)cc3)ns2)CC1 [compound 82, 1-(octylsulfonyl)-4-[3-(4-methylbenzyl)-1,2,4-thiadiazol-5-yl]piperazine] | 1580 nM | 50%
5 | O=C(NCCN1CCN(c2nc(Cc3ccc(F)cc3)ns2)CC1)c1ccccc1 [compound 104, N-{2-[4-[3-(4-fluorobenzyl)-1,2,4-thiadiazol-5-yl]piperazin-1-yl]ethyl}benzamide] | 3820 nM | 65%
6 | CCc1ccc(C(=O)N2CCN(c3nc(Cc4ccc(C)cc4)ns3)CC2C)cc1 (stereo not shown) [compound 147, 1-(4-ethylbenzoyl)-4-[3-(4-methylbenzyl)-1,2,4-thiadiazol-5-yl]-2-methylpiperazine] | 840 nM | 88%
7 | Cc1ccc(C(=O)N2CCCN(c3nc(Cc4ccc(F)cc4)ns3)CC2)cc1 [compound 190, 1-(4-methylbenzoyl)-4-[3-(4-fluorobenzyl)-1,2,4-thiadiazol-5-yl]-1,4-diazepane] | 2770 nM | 87%
8 | Cc1ccc(Cc2nsc(N3CCN(S(=O)(=O)C(C)C)CC3)n2)cc1 [compound 85, 1-(isopropylsulfonyl)-4-[3-(4-methylbenzyl)-1,2,4-thiadiazol-5-yl]piperazine] | 3650 nM | 69%
9 | CC1CN(c2nc(Cc3ccc(Cl)cc3)ns2)CCN1C(=O)c1cccc(F)c1 (stereo not shown) [compound 125, 1-(3-fluorobenzoyl)-4-[3-(4-chlorobenzyl)-1,2,4-thiadiazol-5-yl]-2-methylpiperazine] | 160 nM | 68%
10 | Cc1ccc(Cc2nsc(N3CCN(S(=O)(=O)c4cccc(C(F)(F)F)c4)CC3)n2)cc1 [compound 62, 1-[3-trifluoromethylphenylsulfonyl]-4-[3-(4-methylbenzyl)-1,2,4-thiadiazol-5-yl]piperazine] | – | 45%
11 | O=C(NCCN1CCN(c2nc(Cc3ccc(F)cc3)ns2)CC1)c1ccc(F)cc1 [compound 102, 4-fluoro-N-{2-[4-[3-(4-fluorobenzyl)-1,2,4-thiadiazol-5-yl]piperazin-1-yl]ethyl}benzamide] | 1990 nM | 80%
12 | Cc1ccc(Cc2nsc(N3CCN(CCNC(=O)Cc4ccc(F)cc4)CC3)n2)cc1 [compound 109, 2-(4-fluorophenyl)-N-{2-[4-[3-(4-methylbenzyl)-1,2,4-thiadiazol-5-yl]piperazin-1-yl]ethyl}acetamide] | 3520 nM | 93%
13 | COc1ccc(S(=O)(=O)N(C)CCN(C)c2nc(Cc3cccc(OC)c3)ns2)cc1 [compound 215, N′-[4-methoxyphenylsulfonyl]-N-[3-(3-methoxybenzyl)-1,2,4-thiadiazol-5-yl]-N,N′-dimethylethane-1,2-diamine] | 301 nM | 105%
14 | Cc1ccc(Cc2nsc(N3CCN(C(=O)c4ccccc4)C(C)C3)n2)cc1 (stereo not shown) [compound 169, 1-benzoyl-4-[3-(4-methylbenzyl)-1,2,4-thiadiazol-5-yl]-2-methylpiperazine] | – | 91%
15 | CC1CN(c2nc(Cc3ccc(F)cc3)ns2)CCN1C(=O)c1ccc([N+](=O)[O-])cc1Cl (stereo not shown) [compound 177, 1-(2-chloro-4-nitrobenzoyl)-4-[3-(4-fluorobenzyl)-1,2,4-thiadiazol-5-yl]-2-methylpiperazine] | – | 77%
16 | Cc1ccc(Cc2nsc(N3CCN(C(=O)c4ccc(Br)cc4)CC3)n2)cc1 [compound 164, 1-(4-bromobenzoyl)-4-[3-(4-methylbenzyl)-1,2,4-thiadiazol-5-yl]piperazine] | 3860 nM | 60%
17 | O=C(c1cccc(Cl)c1)N1CCN(c2nc(Cc3ccc(F)cc3)ns2)CC1 [compound 138, 1-(3-chlorobenzoyl)-4-[3-(4-fluorobenzyl)-1,2,4-thiadiazol-5-yl]piperazine] | 360 nM | 81%
18 | Cc1ccc(Cc2nsc(N3CCN(S(=O)(=O)c4ccc(C(C)(C)C)cc4)C(C)C3)n2)cc1 (stereo not shown) [compound 42, 1-[4-tert-butylphenylsulfonyl]-4-[3-(4-methylbenzyl)-1,2,4-thiadiazol-5-yl]-2-methylpiperazine] | 870 nM | 33%
19 | Cc1ccc(Cc2nsc(N3CCN(C/C=C/c4ccccc4)CC3)n2)cc1 [compound 91, 1-[3-phenylprop-2-enyl]-4-[3-(4-methylbenzyl)-1,2,4-thiadiazol-5-yl]piperazine] | 710 nM | 90%
20 | O=C(Cc1ccc(F)cc1)NCCN1CCN(c2nc(Cc3ccc(F)cc3)ns2)CC1 [compound 107, 2-(4-fluorophenyl)-N-{2-[4-[3-(4-fluorobenzyl)-1,2,4-thiadiazol-5-yl]piperazin-1-yl]ethyl}acetamide] | 260 nM | 80%
